Tests used:
FabB (ketosynthase) = FabB (ketosynthase) (Escherichia coli, UniProt P0A953); format: binding
FabF (ketosynthase) = FabF (ketosynthase) (Escherichia coli, UniProt P0AAI5); format: binding
Sequence of FabF (ketosynthase) (P0AAI5 2-413): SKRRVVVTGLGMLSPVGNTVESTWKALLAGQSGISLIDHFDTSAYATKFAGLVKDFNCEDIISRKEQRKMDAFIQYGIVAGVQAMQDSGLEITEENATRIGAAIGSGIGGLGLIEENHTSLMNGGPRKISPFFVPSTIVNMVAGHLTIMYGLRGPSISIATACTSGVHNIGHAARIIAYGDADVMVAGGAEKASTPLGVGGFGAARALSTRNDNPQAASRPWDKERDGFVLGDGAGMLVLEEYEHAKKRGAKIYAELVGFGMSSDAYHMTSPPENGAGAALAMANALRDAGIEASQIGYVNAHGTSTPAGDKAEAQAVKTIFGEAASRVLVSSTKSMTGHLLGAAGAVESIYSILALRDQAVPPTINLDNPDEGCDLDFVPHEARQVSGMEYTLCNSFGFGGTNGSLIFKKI
Sequence of FabF (ketosynthase) (P0A6A8 2-78 partner): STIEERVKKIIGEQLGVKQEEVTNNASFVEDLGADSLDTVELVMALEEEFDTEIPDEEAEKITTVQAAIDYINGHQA

Sequence of FabB (ketosynthase) (P0A953 whole entry): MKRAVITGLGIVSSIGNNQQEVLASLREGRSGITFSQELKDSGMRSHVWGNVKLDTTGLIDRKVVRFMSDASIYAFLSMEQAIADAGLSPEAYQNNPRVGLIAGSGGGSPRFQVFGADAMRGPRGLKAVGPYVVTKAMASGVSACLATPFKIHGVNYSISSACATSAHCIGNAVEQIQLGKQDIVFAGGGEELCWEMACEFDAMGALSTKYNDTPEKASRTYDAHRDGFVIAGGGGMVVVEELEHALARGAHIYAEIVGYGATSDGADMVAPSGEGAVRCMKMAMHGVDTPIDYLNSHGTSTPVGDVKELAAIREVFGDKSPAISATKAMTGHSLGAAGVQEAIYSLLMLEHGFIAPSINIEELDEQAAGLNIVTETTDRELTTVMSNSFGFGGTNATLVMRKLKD
Sequence of FabB (ketosynthase) (P0A6A8 2-78 partner): as the sequence (P0A6A8 2-78 partner) above

- IC50 (FabB (ketosynthase)): ~22.5 µM
- IC50 (FabF (ketosynthase)): ~21.1 µM
SMILES: C/C=C/C/C=C/CCC(=O)[C@H]1O[C@H]1C(N)=O [cerulenin]

Reference: publication PMC11575542 (Chemical Science, 2024)
